Experimental data: publication PMC10004634 (PLOS ONE, 2023)
Read-outs that look alike come from different tables or passages of the source.

Key:
PFCDPK1(P.falciparum) = target: T1, PFCDPK1(P.falciparum) (Plasmodium falciparum, UniProt P62344); assay: biochemical
T1 construct: gene CDPK1

[1] = target: EGFR(L747-E749del, A750P) (Homo sapiens, UniProt P00533, A750P/DEL747-749); assay: biochemical; set-up: KINOMEscan scanMAX competition binding, DNA-tagged kinases, qPCR read-out, percent control at 300 nM
Sequence of EGFR(L747-E749del, A750P) (P00533 with tags, fused parts or gaps DEL747-749/A750P): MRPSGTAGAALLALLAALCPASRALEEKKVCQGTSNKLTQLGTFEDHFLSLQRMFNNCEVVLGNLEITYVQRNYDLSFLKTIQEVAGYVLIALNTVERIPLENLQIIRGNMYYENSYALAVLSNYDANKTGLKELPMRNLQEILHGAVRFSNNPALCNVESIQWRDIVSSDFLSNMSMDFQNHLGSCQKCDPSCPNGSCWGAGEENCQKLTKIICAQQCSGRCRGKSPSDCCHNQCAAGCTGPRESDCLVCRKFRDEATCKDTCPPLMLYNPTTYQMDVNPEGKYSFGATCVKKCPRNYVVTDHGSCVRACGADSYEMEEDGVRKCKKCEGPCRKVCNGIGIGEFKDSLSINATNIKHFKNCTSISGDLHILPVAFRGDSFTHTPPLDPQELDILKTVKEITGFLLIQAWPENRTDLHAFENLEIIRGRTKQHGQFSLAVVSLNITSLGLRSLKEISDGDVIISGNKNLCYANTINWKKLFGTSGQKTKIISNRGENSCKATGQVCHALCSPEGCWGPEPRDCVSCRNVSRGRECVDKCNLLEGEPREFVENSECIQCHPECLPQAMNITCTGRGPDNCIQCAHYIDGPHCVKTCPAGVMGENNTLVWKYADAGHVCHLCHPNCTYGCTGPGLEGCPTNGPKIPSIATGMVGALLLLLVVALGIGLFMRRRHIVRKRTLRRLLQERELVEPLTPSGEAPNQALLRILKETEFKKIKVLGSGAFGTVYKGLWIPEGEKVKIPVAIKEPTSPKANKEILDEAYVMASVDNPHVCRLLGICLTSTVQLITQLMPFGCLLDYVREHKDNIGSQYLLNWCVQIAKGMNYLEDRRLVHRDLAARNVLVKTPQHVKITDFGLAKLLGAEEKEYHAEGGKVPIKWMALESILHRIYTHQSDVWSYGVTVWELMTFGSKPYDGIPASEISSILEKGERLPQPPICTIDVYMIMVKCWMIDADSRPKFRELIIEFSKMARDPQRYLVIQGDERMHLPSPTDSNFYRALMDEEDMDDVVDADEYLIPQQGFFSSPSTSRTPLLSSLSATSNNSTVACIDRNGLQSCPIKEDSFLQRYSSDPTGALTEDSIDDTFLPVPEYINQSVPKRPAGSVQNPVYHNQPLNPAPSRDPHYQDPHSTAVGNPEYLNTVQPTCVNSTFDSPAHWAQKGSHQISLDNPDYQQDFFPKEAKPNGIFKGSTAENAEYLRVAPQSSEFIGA

EGFR(L858R) = EGFR(L858R) (Homo sapiens, UniProt P00533, L858R); assay: biochemical; set-up: KINOMEscan scanMAX competition binding, DNA-tagged kinases, qPCR read-out, percent control at 300 nM
Sequence of EGFR(L858R) (P00533 whole entry L858R): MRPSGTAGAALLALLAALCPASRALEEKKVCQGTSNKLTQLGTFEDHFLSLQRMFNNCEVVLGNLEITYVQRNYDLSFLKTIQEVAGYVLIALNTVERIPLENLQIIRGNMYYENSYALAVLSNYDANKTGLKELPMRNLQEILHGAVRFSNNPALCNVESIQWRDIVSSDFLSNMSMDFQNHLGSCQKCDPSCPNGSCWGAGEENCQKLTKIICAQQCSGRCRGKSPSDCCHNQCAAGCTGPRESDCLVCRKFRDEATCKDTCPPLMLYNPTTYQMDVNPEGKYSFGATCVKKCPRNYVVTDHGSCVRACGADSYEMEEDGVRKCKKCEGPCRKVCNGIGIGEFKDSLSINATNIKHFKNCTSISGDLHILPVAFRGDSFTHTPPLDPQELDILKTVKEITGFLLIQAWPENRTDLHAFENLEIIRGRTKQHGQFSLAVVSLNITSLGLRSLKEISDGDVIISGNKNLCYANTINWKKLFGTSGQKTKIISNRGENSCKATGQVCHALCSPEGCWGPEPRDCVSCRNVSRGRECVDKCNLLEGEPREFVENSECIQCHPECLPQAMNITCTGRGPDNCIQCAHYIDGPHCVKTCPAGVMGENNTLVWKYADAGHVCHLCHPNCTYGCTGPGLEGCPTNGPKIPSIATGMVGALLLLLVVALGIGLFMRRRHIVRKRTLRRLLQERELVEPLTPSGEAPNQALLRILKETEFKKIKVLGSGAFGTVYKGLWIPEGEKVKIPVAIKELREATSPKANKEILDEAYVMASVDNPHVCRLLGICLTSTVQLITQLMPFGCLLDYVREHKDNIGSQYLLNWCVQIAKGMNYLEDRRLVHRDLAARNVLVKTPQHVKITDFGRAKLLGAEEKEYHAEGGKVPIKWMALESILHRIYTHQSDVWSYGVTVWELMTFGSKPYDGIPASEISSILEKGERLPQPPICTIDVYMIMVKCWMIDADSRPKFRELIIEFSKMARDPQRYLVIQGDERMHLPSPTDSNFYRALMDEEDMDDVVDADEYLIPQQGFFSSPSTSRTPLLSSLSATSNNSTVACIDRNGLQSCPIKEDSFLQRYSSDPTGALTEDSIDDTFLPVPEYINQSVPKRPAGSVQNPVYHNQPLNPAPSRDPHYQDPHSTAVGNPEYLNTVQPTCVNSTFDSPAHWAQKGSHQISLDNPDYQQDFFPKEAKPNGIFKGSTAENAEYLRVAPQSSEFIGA

NEK3 = target: T2, NEK3 (Homo sapiens, UniProt P51956); assay: biochemical; set-up: KINOMEscan scanMAX competition binding, DNA-tagged kinases, qPCR read-out, percent control at 300 nM
T2 sequence (P51956 1-506): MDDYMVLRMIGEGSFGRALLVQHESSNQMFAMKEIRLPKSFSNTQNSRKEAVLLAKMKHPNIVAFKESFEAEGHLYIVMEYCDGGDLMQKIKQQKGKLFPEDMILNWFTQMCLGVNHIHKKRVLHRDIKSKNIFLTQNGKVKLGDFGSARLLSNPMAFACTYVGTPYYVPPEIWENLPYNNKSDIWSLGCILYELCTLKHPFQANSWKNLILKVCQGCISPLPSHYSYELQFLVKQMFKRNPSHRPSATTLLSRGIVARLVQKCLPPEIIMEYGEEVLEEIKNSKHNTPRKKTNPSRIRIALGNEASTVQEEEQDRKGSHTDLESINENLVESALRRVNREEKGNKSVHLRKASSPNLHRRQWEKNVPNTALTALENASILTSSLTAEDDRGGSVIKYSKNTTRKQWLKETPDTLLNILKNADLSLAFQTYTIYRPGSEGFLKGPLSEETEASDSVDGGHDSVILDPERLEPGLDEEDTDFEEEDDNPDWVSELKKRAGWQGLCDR

PRKX = target: T3, PRKX (Homo sapiens, UniProt P51817); assay: biochemical; set-up: KINOMEscan scanMAX competition binding, DNA-tagged kinases, qPCR read-out, percent control at 300 nM
T3 sequence (P51817 1-358): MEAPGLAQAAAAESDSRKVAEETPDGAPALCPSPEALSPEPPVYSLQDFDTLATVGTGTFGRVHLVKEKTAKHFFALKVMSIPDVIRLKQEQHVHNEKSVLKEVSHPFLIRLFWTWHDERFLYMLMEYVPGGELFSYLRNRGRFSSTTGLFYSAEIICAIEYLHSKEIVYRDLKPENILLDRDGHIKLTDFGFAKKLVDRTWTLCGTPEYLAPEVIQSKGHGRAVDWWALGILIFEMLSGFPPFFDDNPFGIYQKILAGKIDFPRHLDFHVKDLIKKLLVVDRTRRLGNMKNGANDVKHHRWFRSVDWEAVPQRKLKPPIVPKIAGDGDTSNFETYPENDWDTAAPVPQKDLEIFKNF

STK33 = STK33 (Homo sapiens, UniProt Q9BYT3); assay: biochemical; set-up: KINOMEscan scanMAX competition binding, DNA-tagged kinases, qPCR read-out, percent control at 300 nM
Sequence of STK33 (Q9BYT3 whole entry): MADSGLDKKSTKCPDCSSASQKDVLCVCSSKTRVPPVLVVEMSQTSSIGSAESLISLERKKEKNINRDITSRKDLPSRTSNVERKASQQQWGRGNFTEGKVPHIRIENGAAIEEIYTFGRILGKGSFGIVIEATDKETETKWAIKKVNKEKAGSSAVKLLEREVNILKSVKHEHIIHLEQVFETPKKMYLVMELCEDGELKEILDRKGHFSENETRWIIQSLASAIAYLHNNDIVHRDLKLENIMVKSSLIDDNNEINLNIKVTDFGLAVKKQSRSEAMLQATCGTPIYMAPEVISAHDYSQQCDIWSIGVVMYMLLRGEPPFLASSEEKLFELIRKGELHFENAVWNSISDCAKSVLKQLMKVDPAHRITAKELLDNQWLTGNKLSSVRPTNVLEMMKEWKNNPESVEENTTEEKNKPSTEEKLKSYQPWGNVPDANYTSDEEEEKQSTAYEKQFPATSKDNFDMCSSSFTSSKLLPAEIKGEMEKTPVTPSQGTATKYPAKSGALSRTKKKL

TXK = target: T4, TXK (Homo sapiens, UniProt P42681); assay: Z'-Lyte kinase inhibition assay; type: biochemical; set-up: purchased Thermo Fisher Scientific (Invitrogen Z'-Lyte service); settings: 60 min preincubation
T4 sequence (P42681 1-527): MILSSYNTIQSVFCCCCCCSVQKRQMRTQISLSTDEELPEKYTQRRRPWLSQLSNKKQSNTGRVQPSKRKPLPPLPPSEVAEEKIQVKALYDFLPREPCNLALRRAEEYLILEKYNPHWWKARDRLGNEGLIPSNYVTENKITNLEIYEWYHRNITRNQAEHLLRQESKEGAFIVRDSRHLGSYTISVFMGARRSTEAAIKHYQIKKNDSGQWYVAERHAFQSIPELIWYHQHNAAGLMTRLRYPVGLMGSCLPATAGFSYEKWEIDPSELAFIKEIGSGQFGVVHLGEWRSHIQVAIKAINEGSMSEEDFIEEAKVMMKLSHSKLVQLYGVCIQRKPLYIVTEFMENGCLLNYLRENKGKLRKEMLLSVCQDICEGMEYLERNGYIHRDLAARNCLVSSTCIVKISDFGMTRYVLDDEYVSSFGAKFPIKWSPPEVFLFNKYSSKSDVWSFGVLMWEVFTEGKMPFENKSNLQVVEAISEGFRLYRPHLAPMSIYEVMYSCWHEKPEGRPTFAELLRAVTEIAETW
Method: In all the assays, each test compound was preincubated with peptide/kinase mixture or kinase/antibody mixture for 60 min at room temperature before adding the ATP solution or AlexaFluor labeled Tracer to initiate the 60-min incubation of the reactants.

[2] = read-out: Percent control / Acalabrutinib
[3] = read-out: Percent control / Ibrutinib
[4] = read-out: Percent control / Tirabrutinib
[5] = read-out: Percent control / Zanubrutinib

T1 sequence (P62344 whole entry): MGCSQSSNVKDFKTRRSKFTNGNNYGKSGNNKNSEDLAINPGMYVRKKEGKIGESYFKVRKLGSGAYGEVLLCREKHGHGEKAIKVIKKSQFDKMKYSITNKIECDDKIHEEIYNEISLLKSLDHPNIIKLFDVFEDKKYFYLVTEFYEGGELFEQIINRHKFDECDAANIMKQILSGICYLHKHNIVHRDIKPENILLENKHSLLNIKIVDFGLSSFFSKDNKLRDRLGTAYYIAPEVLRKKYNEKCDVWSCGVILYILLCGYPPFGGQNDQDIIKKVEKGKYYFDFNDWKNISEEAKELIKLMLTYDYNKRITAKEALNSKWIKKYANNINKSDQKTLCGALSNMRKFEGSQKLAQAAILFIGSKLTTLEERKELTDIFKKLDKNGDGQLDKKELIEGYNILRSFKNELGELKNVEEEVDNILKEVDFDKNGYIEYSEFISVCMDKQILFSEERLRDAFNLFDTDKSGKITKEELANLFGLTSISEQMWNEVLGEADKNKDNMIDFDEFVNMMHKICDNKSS

Work on CC#CC(=O)N1CCC[C@H]1c1nc(-c2ccc(C(=O)Nc3ccccn3)cc2)c2c(N)nccn12 [Acalabrutinib] yielded a remaining activity at 0.3 µM (PFCDPK1(P.falciparum); [2]) of 23%, a remaining binding at 0.3 µM [1, 2] of 91% and a remaining binding at 0.3 µM (EGFR(L858R); [2]) of 93%. The remaining binding at 0.3 µM (NEK3; [2]) was 95%, the remaining binding at 0.3 µM (PRKX; [2]) was 81% and the remaining binding at 0.3 µM (STK33; [2]) was 90%. It also gave an IC50 (TXK) of 273 nM.
C=CC(=O)N1CCC[C@@H](n2nc(-c3ccc(Oc4ccccc4)cc3)c3c(N)ncnc32)C1 [Ibrutinib] gave a remaining activity at 0.3 µM (PFCDPK1(P.falciparum); [3]) of 0.9%, a remaining binding at 0.3 µM [1, 3] of 10% and a remaining binding at 0.3 µM (EGFR(L858R); [3]) of 5.6%. For the same compound, the remaining binding at 0.3 µM (NEK3; [3]) was 99%, the remaining binding at 0.3 µM (PRKX; [3]) was 75% and the remaining binding at 0.3 µM (STK33; [3]) was 86%.
CC#CC(=O)N1CC[C@@H](n2c(=O)n(-c3ccc(Oc4ccccc4)cc3)c3c(N)ncnc32)C1 [Tirabrutinib] gave a remaining binding at 0.3 µM [1, 4] of 69%, a remaining binding at 0.3 µM (EGFR(L858R); [4]) of 97% and a remaining binding at 0.3 µM (PRKX; [4]) of 87%. It also gave an IC50 (TXK) of 54.5 nM.
For C=CC(=O)N1CCC([C@@H]2CCNc3c(C(N)=O)c(-c4ccc(Oc5ccccc5)cc4)nn32)CC1 [Zanubrutinib], the remaining activity at 0.3 µM (PFCDPK1(P.falciparum); [5]) was 7.4%, the remaining binding at 0.3 µM (NEK3; [5]) was 100% and the remaining binding at 0.3 µM (PRKX; [5]) was 96%. It also gave a remaining binding at 0.3 µM (STK33; [5]) of 93% and an IC50 (TXK) of 4.59 nM.
